Results on one compound are retold here after patent publication US11999697B2, “Methods and compositions for inhibition of dihydroorotate dehydrogenase” (OHIO STATE INNOVATION FOUNDATION, priority 2018, dated 2024).

The test system of this experiment is NK cell function (MV4-11 targets, normal donor NK cells). In words: Antibody dependent cellular cytotoxicity (ADCC) assay by 51Cr release. It is filed as cell-based, human. As to conditions: 1 μM, 4 hours 51Cr release. How it is done:
Antibody Dependent Cellular Cytotoxicity (ADCC) Assay by ^51Cr Release: Assessment of NK-cell killing activity was performed using standard 4 hour ^51Cr release (CR) assay. Donor NK cells (effector cells) were isolated from the peripheral blood of normal donors (N=2). MV4-11 cells (target cells) were labeled with radioactive ^51Cr for 1 h at 37° C., washed, and plated in 96 well V-bottom plates at a density of 1×10^4 cells/well. Vehicle or 1 μM Cpd3 was added to either the NKs cells, the MV4-11 cells, or both prior to co-culturing. The ^51Cr labeled MV4-11 cells and NK cells were then co-cultured 25:1 or 12:1 effector to target (E:T) ratio in the presence of antibodies targeting the CD33 surface receptor (B133; B1836858), non-targeting isotype control (B147; B1836847), each at […], or no antibody control. Supernatants were collected after 4 h of co-culture and counted on a Perkin Elmer (Waltham, Mass.) Wizard γ-counter. The percentage of specific cell lysis was determined by: % lysis=100×(ER-SR)/(MR-SR). ER, SR, and MR represent experimental, spontaneous and maximum release. Data were normalized to the untreated control.
Briefly, a chromium (Cr^51) release antibody dependent cellular toxicity assay was carried out with MV4-11 cells (targets) and normal donor NK cells (effectors; N=2). […] Cr^51 release was measured following 4 hours of incubation to determine relative toxicity.

As to `CCOc1ccc(-c2ccc(-c3cc(C(=O)O)c4cc(F)ccc4n3)cc2)cc1` [Cpd3, 2-(4′-ethoxy-[1,1′-biphenyl]-4-yl)-6-fluoroquinoline-4-carboxylic acid], the NK cell function entry is on record as “does not impact NK cell function”.
